Measurements from patent US6358885B1, “Substituted phenylheterocyclic herbicides” (Mississippi State University, priority 1992, dated 2002).

Assays:
Assay in all cases: Test G preemergence/postemergence greenhouse plant response rating 0 to 100
[1] = system: broadleaf signalgrass; format: in vivo, Brachiaria plantaginea; details: 0 to 100 scale
Procedure, shortened: (§1)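 Greenhouse pots, one species each; non-phytotoxic solvent vehicle. Read-out: visual injury vs untreated, 13–21 DAT. Dash denotes no result.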

[2] = system: large crabgrass; format: in vivo, Digitaria sanguinalis; details: 0 to 100 scale
Procedure, shortened: as §1

[3] = system: itchgrass; format: in vivo, Rottboellia exaltata; details: 0 to 100 scale
Procedure, shortened: as §1

[4] = system: sandbur; format: in vivo, Cenchrus echinatus; details: 0 to 100 scale
Procedure, shortened: as §1

[5] = system: alfalfa; format: in vivo, Medicago ativa; details: 0 to 100 scale
Procedure, shortened: as §1

[6] = system: guineagrass; format: in vivo, Panicum maximum; details: 0 to 100 scale
Procedure, shortened: as §1

[7] = system: common ragweed; format: in vivo, Ambrosia elatior; details: 0 to 100 scale
Procedure, shortened: as §1

[8] = system: peanut; format: in vivo, Arachis hypoagaea; details: 0 to 100 scale
Procedure, shortened: as §1

[9] = system: pitted morningglory; format: in vivo, Ipomoea lacunosa; details: 0 to 100 scale
Procedure, shortened: as §1

[10] = system: yellow nutsedge; format: in vivo, Cyperus esculentus; details: Rate 125 g/ha, 0 to 100 scale
Procedure, shortened: as §1

[11] = system: common purslane; format: in vivo, Portulaca oleracea; details: 0 to 100 scale
Procedure, shortened: as §1

[12] = system: goosegrass; format: in vivo, Eleusine indica; details: 0 to 100 scale
Procedure, shortened: as §1

[13] = system: johnsongrass; format: in vivo, Sorghum halepense; details: 0 to 100 scale
Procedure, shortened: as §1

[14] = system: annual bluegrass; format: in vivo, Poa annua; details: 0 to 100 scale
Procedure, shortened: as §1

[15] = system: dallisgrass; format: in vivo, Paspalum dilatatum; details: 0 to 100 scale
Procedure, shortened: as §1

[16] = system: purple nutsedge; format: in vivo, Cyperus rotundus; details: Rate 125 g/ha, 0 to 100 scale
Procedure, shortened: as §1

[17] = system: bermudagrass; format: in vivo, Cynodon dactylon; details: 0 to 100 scale
Procedure, shortened: as §1

Structure (SMILES): CCCN1C(=O)COc2cc(F)c(-c3nn4c(c3Cl)CCCC4)cc21 [Compound 32]
- Plant response rating, Brdlf Sgnlgrass ([1]; POSTEMERGENCE, Rate 125 g/ha): 0
- Plant response rating, Brdlf Sgnlgrass ([1]; POSTEMERGENCE, Rate 250 g/ha): 0
- Plant response rating, Brdlf Sgnlgrass ([1]; PREEMERGENCE, Rate 125 g/ha): 0
- Plant response rating, Brdlf Sgnlgrass ([1]; PREEMERGENCE, Rate 250 g/ha): 0
- Plant response rating, Large Crabgrass ([2]; POSTEMERGENCE, Rate 125 g/ha): 0
- Plant response rating, Large Crabgrass ([2]; POSTEMERGENCE, Rate 250 g/ha): 0
- Plant response rating, Large Crabgrass ([2]; PREEMERGENCE, Rate 125 g/ha): 0
- Plant response rating, Large Crabgrass ([2]; PREEMERGENCE, Rate 250 g/ha): 0
- Plant response rating, Itchgrass ([3]; POSTEMERGENCE, Rate 125 g/ha): 0
- Plant response rating, Itchgrass ([3]; POSTEMERGENCE, Rate 250 g/ha): 0
- Plant response rating, Itchgrass ([3]; PREEMERGENCE, Rate 125 g/ha): 0
- Plant response rating, Itchgrass ([3]; PREEMERGENCE, Rate 250 g/ha): 0
- Plant response rating, S. Sandbur ([4]; POSTEMERGENCE, Rate 125 g/ha): 0
- Plant response rating, S. Sandbur ([4]; POSTEMERGENCE, Rate 250 g/ha): 0
- Plant response rating, S. Sandbur ([4]; PREEMERGENCE, Rate 125 g/ha): 0
- Plant response rating, S. Sandbur ([4]; PREEMERGENCE, Rate 250 g/ha): 0
- Plant response rating, Alfalfa Var. ([5]; POSTEMERGENCE, Rate 125 g/ha): 0
- Plant response rating, Alfalfa Var. ([5]; POSTEMERGENCE, Rate 250 g/ha): 0
- Plant response rating, Alfalfa Var. ([5]; PREEMERGENCE, Rate 125 g/ha): 0
- Plant response rating, Alfalfa Var. ([5]; PREEMERGENCE, Rate 250 g/ha): 0
- Plant response rating, Guineagrass ([6]; POSTEMERGENCE, Rate 125 g/ha): 0
- Plant response rating, Guineagrass ([6]; POSTEMERGENCE, Rate 250 g/ha): 0
- Plant response rating, Guineagrass ([6]; PREEMERGENCE, Rate 125 g/ha): 0
- Plant response rating, Guineagrass ([6]; PREEMERGENCE, Rate 250 g/ha): 0
- Plant response rating, Cmn Ragweed ([7]; POSTEMERGENCE, Rate 125 g/ha): 100
- Plant response rating, Cmn Ragweed ([7]; POSTEMERGENCE, Rate 250 g/ha): 60
- Plant response rating, Cmn Ragweed ([7]; PREEMERGENCE, Rate 125 g/ha): 0
- Plant response rating, Cmn Ragweed ([7]; PREEMERGENCE, Rate 250 g/ha): 0
- Plant response rating, Peanuts ([8]; POSTEMERGENCE, Rate 125 g/ha): 0
- Plant response rating, Peanuts ([8]; POSTEMERGENCE, Rate 250 g/ha): 0
- Plant response rating, Peanuts ([8]; PREEMERGENCE, Rate 125 g/ha): 0
- Plant response rating, Peanuts ([8]; PREEMERGENCE, Rate 250 g/ha): 0
- Plant response rating, Pit Morninglory ([9]; POSTEMERGENCE, Rate 125 g/ha): 70
- Plant response rating, Pit Morninglory ([9]; POSTEMERGENCE, Rate 250 g/ha): 30
- Plant response rating, Pit Morninglory ([9]; PREEMERGENCE, Rate 125 g/ha): 0
- Plant response rating, Pit Morninglory ([9]; PREEMERGENCE, Rate 250 g/ha): 0
- Plant response rating, Yellow Nutsedge ([10]; POSTEMERGENCE): 0
- Plant response rating, Yellow Nutsedge ([10]; PREEMERGENCE): 0
- Plant response rating, Cmn Purslane ([11]; POSTEMERGENCE, Rate 125 g/ha): 100
- Plant response rating, Cmn Purslane ([11]; POSTEMERGENCE, Rate 250 g/ha): 80
- Plant response rating, Cmn Purslane ([11]; PREEMERGENCE, Rate 125 g/ha): 0
- Plant response rating, Cmn Purslane ([11]; PREEMERGENCE, Rate 250 g/ha): 100
- Plant response rating, Goosegrass ([12]; POSTEMERGENCE, Rate 125 g/ha): 0
- Plant response rating, Goosegrass ([12]; POSTEMERGENCE, Rate 250 g/ha): 0
- Plant response rating, Goosegrass ([12]; PREEMERGENCE, Rate 125 g/ha): 0
- Plant response rating, Goosegrass ([12]; PREEMERGENCE, Rate 250 g/ha): 0
- Plant response rating, Johnsongrass ([13]; POSTEMERGENCE, Rate 125 g/ha): 0
- Plant response rating, Johnsongrass ([13]; POSTEMERGENCE, Rate 250 g/ha): 0
- Plant response rating, Johnsongrass ([13]; PREEMERGENCE, Rate 125 g/ha): 0
- Plant response rating, Johnsongrass ([13]; PREEMERGENCE, Rate 250 g/ha): 0
- Plant response rating, Ann Bluegrass ([14]; POSTEMERGENCE, Rate 125 g/ha): 0
- Plant response rating, Ann Bluegrass ([14]; POSTEMERGENCE, Rate 250 g/ha): 0
- Plant response rating, Ann Bluegrass ([14]; PREEMERGENCE, Rate 125 g/ha): 0
- Plant response rating, Ann Bluegrass ([14]; PREEMERGENCE, Rate 250 g/ha): 0
- Plant response rating, Dallisgrass ([15]; POSTEMERGENCE, Rate 125 g/ha): 0
- Plant response rating, Dallisgrass ([15]; POSTEMERGENCE, Rate 250 g/ha): 0
- Plant response rating, Dallisgrass ([15]; PREEMERGENCE, Rate 125 g/ha): 0
- Plant response rating, Dallisgrass ([15]; PREEMERGENCE, Rate 250 g/ha): 0
- Plant response rating, Purple Nutsedge ([16]; POSTEMERGENCE): 10
- Plant response rating, Purple Nutsedge ([16]; PREEMERGENCE): 0
- Plant response rating, Bermudagrass ([17]; POSTEMERGENCE, Rate 125 g/ha): 0
- Plant response rating, Bermudagrass ([17]; POSTEMERGENCE, Rate 250 g/ha): 0
- Plant response rating, Bermudagrass ([17]; PREEMERGENCE, Rate 125 g/ha): 0
- Plant response rating, Bermudagrass ([17]; PREEMERGENCE, Rate 250 g/ha): 0
